Laboratory results from US20220304936A1, “DRUG-POLYMER AMORPHOUS SOLID DISPERSIONS USING LINEAR POLY(ACRYLIC ACID) POLYMERS” (LUBRIZOL ADVANCED MATERIALS, INC., priority 2019, published 2022).
≈ marks a conversion by molar mass, not a printed value.

Tests used:
[1] = cited from earlier work
[2] = Solubility limit of drug in equilibrated dissolution media; assay type: physicochemical; conditions: equilibrated dissolution media (0.1 N HCl), simulated gastric fluid; 750 mL 0.1 N HCl, 37° C.
[3] = model APIs; cited from earlier work
[4] = Physical form and Tg of formulations by XRPD and/or DSC; assay type: physicochemical; conditions: as prepared
Protocol: The physical form of the product is identified visually (e.g., solid powder) and by XRPD and/or DSC (to assess amorphous or crystalline state). Tg values are estimates from DSC curves.
X-ray Powder Diffraction (XRPD) is performed with a Panalytical X'Pert^3 Powder XRPD. FIGS. 8-10 show XRPD plots for various formulations made using ITZ and PAA-8. In FIG. 8, plots for ITZ alone (Neat IZT, Formulation F25), a physical mixture of 15% ITZ and 85% PAA (PM 15%, Formulation F26), and a spray-dried solid dispersion of 15% ITZ and 85% PAA (ASD 15%, Formulation F2), are shown. In FIG. 9, plots for ITZ alone (Neat IZT, Formulation F25), a physical mixture of 30% ITZ and 70% PAA (PM 30%, Formulation F27), and a spray-dried solid dispersion of 30% ITZ and 70% PAA (ASD 30%, Formulation F3), are shown. In FIG. 10, plots for ITZ alone (Neat IZT, Formulation F25), a physical mixture of 50% ITZ and 50% PAA (PM 50%, Formulation F28), and a spray-dried solid dispersion of 50% ITZ and 50% PAA (ASD 50%, Formulation F5), are shown.
XRPD is performed with Si zero background holders. The 2-theta position is performed with a Panalytical Si reference standard disc. The XRPD instrument configuration is Bragg-Brentano geometry.
Differential Scanning calorimetry (DSC) is performed with a Mettler-Toldeo DSC-1 instrument (no modulated DSC software) using a sample amount of 5-10 mg. […]

solubility [2]	Form [4]	Compound	Aqueous solubility [1]	solubility in water ([1]; water)	Glass transition temperature, Tg (° C.) [3]
4 to 6 µg/mL (≈ 5.67 to 8.5 µM)		CCC(C)n1ncn(-c2ccc(N3CCN(c4ccc(OCC5COC(Cn6cncn6)(c6ccc(Cl)cc6Cl)O5)cc4)CC3)cc2)c1=O [Itraconazole, 1-(butan-2-yl)-4-{4-[4-(4-{[(2R, 4S)-2-(2,4-dichlorophenyl)-2-(1H-1,2,4-triazol-1-ylmethyl)-1,3-dioxolan-4-yl]methoxylphenyl)piperazin-1-yl]phenyl}-4,5-dihydro-1H-1,2,4-triazol-5-one]	0.001 to 0.004 µg/mL	0.001 to 0.004 µg/mL	
	Crystalline	CC(C)c1nc(CN(C)C(=O)N[C@H](C(=O)N[C@@H](Cc2ccccc2)C[C@H](O)[C@H](Cc2ccccc2)NC(=O)OCc2cncs2)C(C)C)cs1 [Ritonavir, 5-thiazolylmethyl ((alphaS)-alpha-((1S,3S)-1-hydroxy-3-((2S)-2-(3-((2-isopropyl-4-thiazolyl)methyl)-3-methylureido)-3-methylbutyramido)-4-phenylbutyl)phenethyl)carbamate]			45 °C
